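Growth conditions: 96-well plates. Treatment: test compound, 48 hours, 5 concentrations. Analysis: linear interpolation between bracketing concentrations; unreached endpoints set to highest concentration. GI50 marks 50% less growth.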 Active and inactive are the calls of the source. No stated cut-off is given here; in the data, active = GI50 up to about 1.1 µM and inactive = higher.
Assays:
Experiment in all cases: NCI-60 cell line screen, 48 h
NCI-H226 = test system: NCI-H226
A498 = test system: A498
TK-10 = test system: TK-10
DMS-273 = test system: DMS-273
DMS-114 = test system: DMS-114
HCC 2998 = test system: HCC 2998
NCI-H522 = test system: NCI-H522
NCI-H23 = test system: NCI-H23
SK-MEL-28 = test system: SK-MEL-28
COLO 205 = test system: COLO 205
OVCAR-3 = test system: OVCAR-3
A549 = test system: A549
CCRF-CEM = test system: CCRF-CEM
U-251 = test system: U-251
DU-145 = test system: DU-145
OVCAR-5 = test system: OVCAR-5
MOLT-4 = test system: MOLT-4
Hs-578T = test system: Hs-578T
HCT-116 = test system: HCT-116
MCF7 = test system: MCF7
OVCAR-8 = test system: OVCAR-8
SF-539 = test system: SF-539
HT-29 = test system: HT-29
HCT-15 = test system: HCT-15
SN12C = test system: SN12C
PC-3 = test system: PC-3
SF-268 = test system: SF-268
UO-31 = test system: UO-31
SNB-19 = test system: SNB-19
NCI-H460 = test system: NCI-H460
SNB-75 = test system: SNB-75
SW-620 = test system: SW-620
BT-549 = test system: BT-549
SK-MEL-5 = test system: SK-MEL-5
CAKI-1 = test system: CAKI-1
HOP-62 = test system: HOP-62
K562 = test system: K562
SK-OV-3 = test system: SK-OV-3
MDA-N = test system: MDA-N
HOP-92 = test system: HOP-92
T47D = test system: T47D
HL-60 = test system: HL-60
SK-MEL-2 = test system: SK-MEL-2
786-0 = test system: 786-0
OVCAR-4 = test system: OVCAR-4
ACHN = test system: ACHN
SF-295 = test system: SF-295
M14 = test system: M14
LOX IMVI = test system: LOX IMVI
MDA-MB-435 = test system: MDA-MB-435
SR = test system: SR
RPMI-8226 = test system: RPMI-8226
RXF 393 = test system: RXF 393
EKVX = test system: EKVX
MDA-MB-231 = test system: MDA-MB-231
IGROV-1 = test system: IGROV-1
KM12 = test system: KM12
Malme-3M = test system: Malme-3M
NCI/ADR-RES = test system: NCI/ADR-RES
UACC-62 = test system: UACC-62
UACC-257 = test system: UACC-257

Compound: CC1[C@@H]2CC=C3[C@H]4CCC5Cc6nc7c(nc6C[C@@]5(C)C4CC(=O)[C@]32CO[C@]12OC(C)(C)CC2O)CC1CC[C@@H]2C3=C[C@H]4O[C@@]5(O[C@@](C)(CO)C[C@@H]5O)C(C)[C@@]4(O)[C@]3(C)[C@@H](O)CC2[C@]1(C)C7 (stereo partly specified)
- GI50 (NCI-H226): 0.00273 µM (active)
- GI50 (A498): 0.00143 µM (active)
- GI50 (TK-10): 0.034 µM (active)
- GI50 (DMS-273): 0.000105 µM (active)
- GI50 (DMS-114): 0.000172 µM (active)
- GI50 (HCC 2998): 0.0955 µM (active)
- GI50 (NCI-H522): 0.00121 µM (active)
- GI50 (NCI-H23): 0.0055 µM (active)

Compound: COc1cc(Br)cc2nc(-c3cccs3)oc12
- GI50 (SK-MEL-28): > 100 µM (inactive)
- GI50 (COLO 205): > 100 µM (inactive)
- GI50 (OVCAR-3): > 100 µM (inactive)
- GI50 (A549): > 100 µM (inactive)
- GI50 (CCRF-CEM): > 100 µM (inactive)
- GI50 (U-251): 42.1 µM (inactive)
- GI50 (DU-145): > 100 µM (inactive)
- GI50 (OVCAR-5): > 100 µM (inactive)
- GI50 (MOLT-4): > 100 µM (inactive)
- GI50 (Hs-578T): 31.3 µM (inactive)
- GI50 (NCI-H226): > 100 µM (inactive)
- GI50 (A498): > 55.3 µM (inactive)
- GI50 (HCT-116): > 70.6 µM (inactive)
- GI50 (MCF7): 2.3 µM (inactive)
- GI50 (OVCAR-8): > 100 µM (inactive)
- GI50 (SF-539): 75.9 µM (inactive)
- GI50 (HT-29): > 100 µM (inactive)
- GI50 (HCT-15): 16.2 µM
- GI50 (SN12C): > 100 µM (inactive)
- GI50 (PC-3): > 100 µM (inactive)
- GI50 (SF-268): > 62.4 µM (inactive)
- GI50 (UO-31): > 54.7 µM (inactive)
- GI50 (SNB-19): > 83 µM (inactive)
- GI50 (NCI-H460): > 100 µM (inactive)
- GI50 (TK-10): 31.8 µM (inactive)
- GI50 (SNB-75): > 51.3 µM (inactive)
- GI50 (SW-620): > 100 µM (inactive)
- GI50 (BT-549): > 67.8 µM (inactive)
- GI50 (SK-MEL-5): 74.1 µM (inactive)
- GI50 (CAKI-1): > 86.5 µM (inactive)
- GI50 (HOP-62): 24.5 µM (inactive)
- GI50 (K562): > 100 µM (inactive)
- GI50 (SK-OV-3): > 90.6 µM (inactive)
- GI50 (MDA-N): > 100 µM (inactive)
- GI50 (HOP-92): > 63.5 µM (inactive)
- GI50 (T47D): 6.15 µM (inactive)
- GI50 (HL-60): > 100 µM (inactive)
- GI50 (HCC 2998): > 100 µM (inactive)
- GI50 (SK-MEL-2): > 100 µM (inactive)
- GI50 (786-0): > 56 µM (inactive)
- GI50 (OVCAR-4): > 26.9 µM (inactive)
- GI50 (ACHN): > 83.8 µM (inactive)
- GI50 (SF-295): 55.7 µM (inactive)
- GI50 (M14): > 100 µM (inactive)
- GI50 (LOX IMVI): > 100 µM (inactive)
- GI50 (MDA-MB-435): > 100 µM (inactive)
- GI50 (SR): > 100 µM (inactive)
- GI50 (NCI-H522): 99.8 µM (inactive)
- GI50 (RPMI-8226): > 100 µM (inactive)
- GI50 (RXF 393): 45.6 µM (inactive)
- GI50 (NCI-H23): > 68.1 µM (inactive)
- GI50 (EKVX): > 61.9 µM (inactive)
- GI50 (MDA-MB-231): > 42.2 µM (inactive)
- GI50 (IGROV-1): > 43.2 µM (inactive)
- GI50 (KM12): > 100 µM (inactive)
- GI50 (Malme-3M): > 100 µM (inactive)
- GI50 (NCI/ADR-RES): > 100 µM (inactive)
- GI50 (UACC-62): > 100 µM (inactive)
- GI50 (UACC-257): > 100 µM (inactive)

Compound: N=C(N)SC1c2ccccc2-c2cc([N+](=O)[O-])ccc21 (stereo unspecified)
- GI50 (SK-MEL-28): 2.41 µM (inactive)
- GI50 (COLO 205): 2.94 µM (inactive)
- GI50 (OVCAR-3): 2.69 µM (inactive)
- GI50 (A549): 4.33 µM (inactive)
- GI50 (CCRF-CEM): 3.3 µM (inactive)
- GI50 (U-251): 2.75 µM (inactive)
- GI50 (DU-145): 3.88 µM (inactive)
- GI50 (OVCAR-5): 9.95 µM (inactive)
- GI50 (MOLT-4): 3.52 µM (inactive)
- GI50 (Hs-578T): 3.1 µM (inactive)
- GI50 (NCI-H226): 7.53 µM (inactive)
- GI50 (A498): 3.62 µM (inactive)
- GI50 (HCT-116): 4.76 µM (inactive)
- GI50 (MCF7): 3.24 µM (inactive)
- GI50 (OVCAR-8): 8.99 µM (inactive)
- GI50 (SF-539): 3.96 µM (inactive)
- GI50 (HT-29): 3.66 µM (inactive)
- GI50 (HCT-15): 4.48 µM
- GI50 (SN12C): 8.51 µM (inactive)
- GI50 (PC-3): 3.78 µM (inactive)
- GI50 (SF-268): 4.48 µM (inactive)
- GI50 (UO-31): 8.13 µM (inactive)
- GI50 (SNB-19): 3.66 µM (inactive)
- GI50 (NCI-H460): 3.93 µM (inactive)
- GI50 (TK-10): 8.24 µM (inactive)
- GI50 (SNB-75): 2.02 µM (inactive)
- GI50 (SW-620): 3.15 µM (inactive)
- GI50 (BT-549): 6.05 µM (inactive)
- GI50 (SK-MEL-5): 3.08 µM (inactive)
- GI50 (CAKI-1): 6.1 µM (inactive)
- GI50 (HOP-62): 6.56 µM (inactive)
- GI50 (K562): 3.89 µM (inactive)
- GI50 (SK-OV-3): 4.44 µM (inactive)
- GI50 (MDA-N): 3 µM (inactive)
- GI50 (HOP-92): 13.7 µM (inactive)
- GI50 (T47D): 2.95 µM (inactive)
- GI50 (HL-60): 2.61 µM (inactive)
- GI50 (HCC 2998): 2.59 µM (inactive)
- GI50 (SK-MEL-2): 3.51 µM (inactive)
- GI50 (786-0): 4.67 µM (inactive)
- GI50 (OVCAR-4): 5 µM (inactive)
- GI50 (ACHN): 6.53 µM (inactive)
- GI50 (SF-295): 4.01 µM (inactive)
- GI50 (M14): 5.15 µM (inactive)
- GI50 (LOX IMVI): 5.57 µM (inactive)
- GI50 (MDA-MB-435): 1.92 µM (inactive)
- GI50 (SR): 3.86 µM (inactive)
- GI50 (NCI-H522): 2.51 µM (inactive)
- GI50 (RPMI-8226): 4.2 µM (inactive)
- GI50 (RXF 393): 3.5 µM (inactive)
- GI50 (NCI-H23): 4.84 µM (inactive)
- GI50 (EKVX): 10.4 µM (inactive)
- GI50 (MDA-MB-231): 6.5 µM (inactive)
- GI50 (IGROV-1): 5.62 µM (inactive)
- GI50 (KM12): 3.23 µM (inactive)
- GI50 (Malme-3M): 5.19 µM (inactive)
- GI50 (NCI/ADR-RES): 3.01 µM (inactive)
- GI50 (UACC-62): 2.86 µM (inactive)
- GI50 (UACC-257): 7.45 µM (inactive)
